Measurements taken from ChEMBL document CHEMBL1201862, “PubChem BioAssay data set” (2004).
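Tested at 5 concentrations; 48 h exposure; 96-well plates; endpoints linearly interpolated, else capped at highest concentration. GI50: concentration for 50% inhibition of growth.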 The source made the active and inactive calls. Cut-off read from the data, not from the text of the source: active = GI50 up to about 1.1 µM and inactive = higher.

Key:
Assay in all cases: DTP human tumour cell line panel, 48 h
SW-620 = test system: SW-620
CCRF-CEM = test system: CCRF-CEM
NCI-H460 = test system: NCI-H460
SF-539 = test system: SF-539
UACC-62 = test system: UACC-62
RPMI-8226 = test system: RPMI-8226
NCI-H522 = test system: NCI-H522
M14 = test system: M14
OVCAR-3 = test system: OVCAR-3
K562 = test system: K562
HL-60 = test system: HL-60
MOLT-4 = test system: MOLT-4
HCC 2998 = test system: HCC 2998
HCT-15 = test system: HCT-15
EKVX = test system: EKVX
SR = test system: SR
LOX IMVI = test system: LOX IMVI
DLD-1 = test system: DLD-1
SNB-75 = test system: SNB-75
SK-MEL-2 = test system: SK-MEL-2

With `Cc1coc2c1C[C@@]1(C)[C@H](CCC[C@@H]1C)[C@H]2O` the GI50 (SW-620) was 37.7 µM (inactive), the GI50 (CCRF-CEM) was 28.4 µM (inactive) and the GI50 (NCI-H460) was > 100 µM (inactive). For the same compound, the GI50 (SF-539) was 25.1 µM (inactive), the GI50 (UACC-62) was 69.5 µM (inactive) and the GI50 (RPMI-8226) was 18.1 µM (inactive). The GI50 (NCI-H522) was 22.4 µM (inactive), the GI50 (M14) was 60.4 µM (inactive) and the GI50 (OVCAR-3) was 22.6 µM (inactive). For the same compound, the GI50 (K562) was 28.4 µM (inactive), the GI50 (HL-60) was 16.4 µM (inactive) and the GI50 (MOLT-4) was 18 µM (inactive). For the same compound, the GI50 (HCC 2998) was 11.4 µM (inactive), the GI50 (HCT-15) was 36.2 µM and the GI50 (EKVX) was 58.7 µM (inactive). The GI50 (SR) was 14.6 µM (inactive) and the GI50 (LOX IMVI) was 56.4 µM (inactive).

`COc1ccc(/C=C/C(=O)C(C)(C)C)cc1OC` was tested, and the GI50 (SW-620) was 79.4 µM (inactive), the GI50 (DLD-1) was 65.9 µM (inactive) and the GI50 (CCRF-CEM) was 36.2 µM (inactive). For the same compound, the GI50 (NCI-H460) was > 100 µM (inactive), the GI50 (SNB-75) was 34.4 µM (inactive) and the GI50 (UACC-62) was 52.6 µM (inactive). For the same compound, the GI50 (RPMI-8226) was 47.4 µM (inactive), the GI50 (NCI-H522) was 34.8 µM (inactive) and the GI50 (M14) was > 100 µM (inactive). The GI50 (OVCAR-3) was 64.7 µM (inactive), the GI50 (K562) was 36.7 µM (inactive) and the GI50 (MOLT-4) was 59.6 µM (inactive). The GI50 (HCC 2998) was > 100 µM (inactive), the GI50 (HCT-15) was 38.5 µM and the GI50 (EKVX) was > 100 µM (inactive).

With `CCCCCCNC(=O)C(C)C1CCC2(C)C=CC(=O)C(C)=C2C1O` (centres undefined) the GI50 (SW-620) was > 100 µM (inactive), the GI50 (DLD-1) was > 100 µM (inactive) and the GI50 (CCRF-CEM) was > 100 µM (inactive). The GI50 (NCI-H460) was > 100 µM (inactive), the GI50 (SNB-75) was > 100 µM (inactive) and the GI50 (SF-539) was > 100 µM (inactive). The GI50 (UACC-62) was > 100 µM (inactive), the GI50 (RPMI-8226) was > 70.3 µM (inactive) and the GI50 (NCI-H522) was 86.3 µM (inactive). For the same compound, the GI50 (OVCAR-3) was > 100 µM (inactive), the GI50 (K562) was 68.5 µM (inactive) and the GI50 (HL-60) was > 64.4 µM (inactive). For the same compound, the GI50 (MOLT-4) was > 75.2 µM (inactive), the GI50 (HCC 2998) was > 100 µM (inactive) and the GI50 (SK-MEL-2) was > 100 µM (inactive). The GI50 (HCT-15) was over 100 µM, the GI50 (EKVX) was > 100 µM (inactive) and the GI50 (LOX IMVI) was > 100 µM (inactive).

`CC1CC(c2ccc([N+](=O)[O-])cc2)=Nc2ccccc2[S+]1[O-]` (centres undefined) was tested, and the GI50 (SW-620) was 15.3 µM (inactive), the GI50 (DLD-1) was 14.3 µM (inactive) and the GI50 (CCRF-CEM) was 11 µM (inactive). For the same compound, the GI50 (NCI-H460) was 17.1 µM (inactive), the GI50 (SNB-75) was 21.4 µM (inactive) and the GI50 (SF-539) was 21.8 µM (inactive). For the same compound, the GI50 (UACC-62) was 17.7 µM (inactive), the GI50 (RPMI-8226) was 4.58 µM (inactive) and the GI50 (NCI-H522) was 12.2 µM (inactive). The GI50 (M14) was 18.1 µM (inactive), the GI50 (K562) was 17.5 µM (inactive) and the GI50 (HL-60) was 15.1 µM (inactive). For the same compound, the GI50 (MOLT-4) was 24.8 µM (inactive), the GI50 (HCC 2998) was 21.8 µM (inactive) and the GI50 (SK-MEL-2) was 44.5 µM (inactive). The GI50 (HCT-15) was 14.6 µM, the GI50 (EKVX) was 23.4 µM (inactive) and the GI50 (SR) was 22.5 µM (inactive). For the same compound, the GI50 (LOX IMVI) was 12.1 µM (inactive).

In the case of `Cc1c2ccccc2c(CO)c2cc(F)c3ccccc3c12`, the GI50 (SW-620) was 37.5 µM (inactive), the GI50 (DLD-1) was 14.8 µM (inactive) and the GI50 (CCRF-CEM) was 22.3 µM (inactive). The GI50 (SNB-75) was 29.9 µM (inactive), the GI50 (SF-539) was 30.6 µM (inactive) and the GI50 (UACC-62) was 27.2 µM (inactive). For the same compound, the GI50 (NCI-H522) was 12.9 µM (inactive), the GI50 (OVCAR-3) was 26.9 µM (inactive) and the GI50 (K562) was 23.5 µM (inactive). For the same compound, the GI50 (HL-60) was 17.6 µM (inactive), the GI50 (MOLT-4) was 14.8 µM (inactive) and the GI50 (HCC 2998) was 50.6 µM (inactive). For the same compound, the GI50 (SK-MEL-2) was 18.5 µM (inactive), the GI50 (EKVX) was 29.9 µM (inactive) and the GI50 (SR) was 27 µM (inactive). For the same compound, the GI50 (LOX IMVI) was 17.1 µM (inactive).

`Cc1ccc(/N=N/C(C2=NC(=O)CS2)c2nc3ccccc3[nH]2)cc1` (centres undefined) was tested, and the GI50 (SW-620) was > 100 µM (inactive), the GI50 (DLD-1) was > 100 µM (inactive) and the GI50 (CCRF-CEM) was 29.9 µM (inactive). The GI50 (NCI-H460) was > 100 µM (inactive), the GI50 (SNB-75) was 59.2 µM (inactive) and the GI50 (SF-539) was 54.6 µM (inactive). For the same compound, the GI50 (UACC-62) was > 100 µM (inactive), the GI50 (RPMI-8226) was > 100 µM (inactive) and the GI50 (NCI-H522) was > 100 µM (inactive). The GI50 (M14) was > 100 µM (inactive), the GI50 (OVCAR-3) was > 100 µM (inactive) and the GI50 (K562) was > 100 µM (inactive). The GI50 (HL-60) was > 100 µM (inactive), the GI50 (MOLT-4) was 20.7 µM (inactive) and the GI50 (HCT-15) was over 100 µM. For the same compound, the GI50 (EKVX) was > 100 µM (inactive) and the GI50 (SR) was > 100 µM (inactive).

With `NC(=O)c1ncn2c1CNC(=O)C2` the GI50 (SW-620) was > 100 µM (inactive), the GI50 (CCRF-CEM) was > 100 µM (inactive) and the GI50 (NCI-H460) was > 100 µM (inactive). The GI50 (SNB-75) was > 100 µM (inactive), the GI50 (SF-539) was > 100 µM (inactive) and the GI50 (UACC-62) was > 100 µM (inactive). The GI50 (NCI-H522) was > 100 µM (inactive), the GI50 (M14) was > 100 µM (inactive) and the GI50 (OVCAR-3) was > 100 µM (inactive). For the same compound, the GI50 (K562) was > 100 µM (inactive), the GI50 (HL-60) was > 100 µM (inactive) and the GI50 (MOLT-4) was > 100 µM (inactive). The GI50 (HCC 2998) was > 100 µM (inactive), the GI50 (SK-MEL-2) was > 100 µM (inactive) and the GI50 (HCT-15) was over 100 µM. For the same compound, the GI50 (EKVX) was > 100 µM (inactive) and the GI50 (SR) was > 100 µM (inactive).

In the case of `Nc1nc(Cl)cc(NCCCNc2cc(Cl)nc(N)n2)n1`, the GI50 (SW-620) was > 100 µM (inactive), the GI50 (DLD-1) was > 100 µM (inactive) and the GI50 (CCRF-CEM) was > 100 µM (inactive). The GI50 (NCI-H460) was > 100 µM (inactive), the GI50 (SNB-75) was > 100 µM (inactive) and the GI50 (SF-539) was > 100 µM (inactive). For the same compound, the GI50 (UACC-62) was > 100 µM (inactive), the GI50 (RPMI-8226) was > 100 µM (inactive) and the GI50 (M14) was > 100 µM (inactive). For the same compound, the GI50 (OVCAR-3) was > 100 µM (inactive), the GI50 (K562) was > 100 µM (inactive) and the GI50 (HL-60) was > 100 µM (inactive). For the same compound, the GI50 (MOLT-4) was > 100 µM (inactive), the GI50 (HCC 2998) was > 100 µM (inactive) and the GI50 (SK-MEL-2) was > 100 µM (inactive). For the same compound, the GI50 (HCT-15) was over 100 µM, the GI50 (EKVX) was > 100 µM (inactive) and the GI50 (SR) was > 100 µM (inactive). For the same compound, the GI50 (LOX IMVI) was > 100 µM (inactive).

For `Cc1cn(C2CC(n3cc(Cn4ccc(=O)[nH]c4=O)nn3)C(CO)O2)c(=O)[nH]c1=O` (centres undefined), the GI50 (SW-620) was > 100 µM (inactive), the GI50 (CCRF-CEM) was > 100 µM (inactive) and the GI50 (SNB-75) was > 100 µM (inactive). For the same compound, the GI50 (SF-539) was > 100 µM (inactive), the GI50 (UACC-62) was > 100 µM (inactive) and the GI50 (RPMI-8226) was > 100 µM (inactive). The GI50 (M14) was > 100 µM (inactive), the GI50 (OVCAR-3) was > 100 µM (inactive) and the GI50 (HL-60) was 95.1 µM (inactive). For the same compound, the GI50 (MOLT-4) was > 100 µM (inactive), the GI50 (HCC 2998) was > 100 µM (inactive) and the GI50 (SK-MEL-2) was > 100 µM (inactive). The GI50 (HCT-15) was over 100 µM and the GI50 (SR) was < 0.01 µM (active).

In the case of `Cc1ccc2c(O)cc(-c3ccc(F)cc3)nc2n1`, the GI50 (SW-620) was 28.6 µM (inactive), the GI50 (CCRF-CEM) was 32.1 µM (inactive) and the GI50 (SNB-75) was 14.1 µM (inactive). The GI50 (SF-539) was 42.5 µM (inactive), the GI50 (UACC-62) was 24.1 µM (inactive) and the GI50 (RPMI-8226) was 24.9 µM (inactive). The GI50 (NCI-H522) was 24.9 µM (inactive), the GI50 (M14) was 47.6 µM (inactive) and the GI50 (K562) was 22 µM (inactive). The GI50 (HL-60) was 14.1 µM (inactive), the GI50 (MOLT-4) was 26.8 µM (inactive) and the GI50 (HCC 2998) was 44 µM (inactive). For the same compound, the GI50 (SK-MEL-2) was 45.7 µM (inactive), the GI50 (HCT-15) was 18.5 µM and the GI50 (EKVX) was 28.7 µM (inactive). The GI50 (SR) was 7.4 µM (inactive) and the GI50 (LOX IMVI) was 30.1 µM (inactive).
